Test results: PubChem BioAssay AID2060886 (Molecular Pharmacology Branch, DTP, NCI, 2025)

Test system: 653999-131-R-J2-PDC complex spheroids, growth inhibition
Test: Anticancer human tumor 653999-131-R-J2-PDC patient-derived lung adenocarcinoma cell line growth inhibition [RAS]
Settings: for IC50: curve of first compound; for viability, T/C: stronger effect = lower value
Summary of the method: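 Tumour cells grown as complex spheroids with HUVEC endothelial cells and mesenchymal stem cells, treated with RAS pathway inhibitor combinations. Each agent spans half-log steps from near clinical Cmax, or 10 microM where Cmax is unknown.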
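Note: spheroids exposed to the agents for seven days before the readout.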

O=C(c1ccc(F)c(F)c1Nc1ccc(I)cc1F)N1CC(O)([C@@H]2CCCCN2)C1 + C=CC(=O)N1CCN(c2nc(OCC3CCCN3C)nc3c(F)c(-c4nc(N)cc(C)c4C(F)(F)F)c(Cl)cc23)C(C)C1
IC50 (second compound 0.00316 µM): 96.1 nM | IC50 (second compound 0.01 µM): 49.2 nM | IC50 (second compound 0.0316 µM): 111 nM | IC50 (second compound 0.1 µM): 63.8 nM | IC50 (second compound 0.316 µM): 87.3 nM | IC50 (second compound 1 µM): 70.3 nM | viability, T/C (second compound 0.00316 µM, first compound 0.00316 µM): 86.1% | viability, T/C (second compound 0.00316 µM, first compound 0.01 µM): 83.1% | viability, T/C (second compound 0.00316 µM, first compound 0.0316 µM): 63.8% | viability, T/C (second compound 0.00316 µM, first compound 0.1 µM): 53.6% | viability, T/C (second compound 0.00316 µM, first compound 0.316 µM): 25% | viability, T/C (second compound 0.00316 µM, first compound 1 µM): 10.2% | viability, T/C (second compound 0.01 µM, first compound 0.00316 µM): 94.1% | viability, T/C (second compound 0.01 µM, first compound 0.01 µM): 83.3% | viability, T/C (second compound 0.01 µM, first compound 0.0316 µM): 53.2% | viability, T/C (second compound 0.01 µM, first compound 0.1 µM): 37.7% | viability, T/C (second compound 0.01 µM, first compound 0.316 µM): 24.1% | viability, T/C (second compound 0.01 µM, first compound 1 µM): 8.42% | viability, T/C (second compound 0.0316 µM, first compound 0.00316 µM): 105% | viability, T/C (second compound 0.0316 µM, first compound 0.01 µM): 86.6% | viability, T/C (second compound 0.0316 µM, first compound 0.0316 µM): 74.8% | viability, T/C (second compound 0.0316 µM, first compound 0.1 µM): 57.6% | viability, T/C (second compound 0.0316 µM, first compound 0.316 µM): 22.4% | viability, T/C (second compound 0.0316 µM, first compound 1 µM): 7.31% | viability, T/C (second compound 0.1 µM, first compound 0.00316 µM): 96.9% | viability, T/C (second compound 0.1 µM, first compound 0.01 µM): 80.5% | viability, T/C (second compound 0.1 µM, first compound 0.0316 µM): 60.6% | viability, T/C (second compound 0.1 µM, first compound 0.1 µM): 40.5% | viability, T/C (second compound 0.1 µM, first compound 0.316 µM): 29% | viability, T/C (second compound 0.1 µM, first compound 1 µM): 9.39% | viability, T/C (second compound 0.316 µM, first compound 0.00316 µM): 84.4% | viability, T/C (second compound 0.316 µM, first compound 0.01 µM): 69.9% | viability, T/C (second compound 0.316 µM, first compound 0.0316 µM): 65.8% | viability, T/C (second compound 0.316 µM, first compound 0.1 µM): 51.2% | viability, T/C (second compound 0.316 µM, first compound 0.316 µM): 24.5% | viability, T/C (second compound 0.316 µM, first compound 1 µM): 9.08% | viability, T/C (second compound 1 µM, first compound 0.00316 µM): 100% | viability, T/C (second compound 1 µM, first compound 0.01 µM): 79% | viability, T/C (second compound 1 µM, first compound 0.0316 µM): 60.3% | viability, T/C (second compound 1 µM, first compound 0.1 µM): 48.8% | viability, T/C (second compound 1 µM, first compound 0.316 µM): 25.8% | viability, T/C (second compound 1 µM, first compound 1 µM): 11%

C=CC(=O)N1CCN(c2nc(OCC3CCCN3C)nc3c(F)c(-c4nc(N)cc(C)c4C(F)(F)F)c(Cl)cc23)C(C)C1 (centres undefined) + CCn1c(-c2cccnc2C(C)OC)c2c3cc(ccc31)N1CCOC(CC(NC(=O)C(C(C)C)N(C)C(=O)C3(F)CCN(C(=O)C#CC(C)(C)N(C)C)CC3)C(=O)N3CCCC(N3)C(=O)OCC(C)(C)C2)C1
IC50 (second compound 0.000949 µM): > 1000 nM | IC50 (second compound 0.003 µM): > 1000 nM | IC50 (second compound 0.00949 µM): > 1000 nM | IC50 (second compound 0.03 µM): > 1000 nM | IC50 (second compound 0.0949 µM): > 1000 nM | IC50 (second compound 0.3 µM): > 1000 nM | viability, T/C (second compound 0.000949 µM, first compound 0.00316 µM): 94.1% | viability, T/C (second compound 0.000949 µM, first compound 0.01 µM): 103% | viability, T/C (second compound 0.000949 µM, first compound 0.0316 µM): 101% | viability, T/C (second compound 0.000949 µM, first compound 0.1 µM): 98.3% | viability, T/C (second compound 0.000949 µM, first compound 0.316 µM): 103% | viability, T/C (second compound 0.000949 µM, first compound 1 µM): 91.5% | viability, T/C (second compound 0.003 µM, first compound 0.00316 µM): 113% | viability, T/C (second compound 0.003 µM, first compound 0.01 µM): 101% | viability, T/C (second compound 0.003 µM, first compound 0.0316 µM): 102% | viability, T/C (second compound 0.003 µM, first compound 0.1 µM): 98.9% | viability, T/C (second compound 0.003 µM, first compound 0.316 µM): 99.8% | viability, T/C (second compound 0.003 µM, first compound 1 µM): 104% | viability, T/C (second compound 0.00949 µM, first compound 0.00316 µM): 93.2% | viability, T/C (second compound 0.00949 µM, first compound 0.01 µM): 104% | viability, T/C (second compound 0.00949 µM, first compound 0.0316 µM): 102% | viability, T/C (second compound 0.00949 µM, first compound 0.1 µM): 96.9% | viability, T/C (second compound 0.00949 µM, first compound 0.316 µM): 109% | viability, T/C (second compound 0.00949 µM, first compound 1 µM): 106% | viability, T/C (second compound 0.03 µM, first compound 0.00316 µM): 102% | viability, T/C (second compound 0.03 µM, first compound 0.01 µM): 99.2% | viability, T/C (second compound 0.03 µM, first compound 0.0316 µM): 104% | viability, T/C (second compound 0.03 µM, first compound 0.1 µM): 91.6% | viability, T/C (second compound 0.03 µM, first compound 0.316 µM): 114% | viability, T/C (second compound 0.03 µM, first compound 1 µM): 101% | viability, T/C (second compound 0.0949 µM, first compound 0.00316 µM): 84.2% | viability, T/C (second compound 0.0949 µM, first compound 0.01 µM): 107% | viability, T/C (second compound 0.0949 µM, first compound 0.0316 µM): 112% | viability, T/C (second compound 0.0949 µM, first compound 0.1 µM): 107% | viability, T/C (second compound 0.0949 µM, first compound 0.316 µM): 108% | viability, T/C (second compound 0.0949 µM, first compound 1 µM): 102% | viability, T/C (second compound 0.3 µM, first compound 0.00316 µM): 103% | viability, T/C (second compound 0.3 µM, first compound 0.01 µM): 98.9% | viability, T/C (second compound 0.3 µM, first compound 0.0316 µM): 111% | viability, T/C (second compound 0.3 µM, first compound 0.1 µM): 108% | viability, T/C (second compound 0.3 µM, first compound 0.316 µM): 104% | viability, T/C (second compound 0.3 µM, first compound 1 µM): 96.8%
